Results published in article PMC6770517, “Insight into the Antifungal Mechanism of Action of Human RNase N-terminus Derived Peptides” (International Journal of Molecular Sciences, 2019).
In brackets after ≈: the same amount, converted by molar mass. Where no end group is shown, it is not given here.

Legend:
[1] = tested on: C. albicans planktonic cells; type: cell-based, Candida albicans (ATCC 90028); conditions: 4 h
Description: Cell viability of C. albicans was assayed using the BacTiter-Glo™ Microbial Cell Viability kit (Promega), which measures the number of viable cells, by ATP quantification. ATP, as an indicator of metabolically active cells, is indirectly measured by a coupled luminescence detection assay. The luminescent signal is proportional to the amount of ATP required for the conversion of luciferin into oxyluciferin in the presence of luciferase. An overnight culture of C. albicans was used to inoculate fresh Sabouraud liquid culture, and logarithmic phase culture was grown to an OD592 of 0.2. RNase derived N-terminal peptides were added to 0.1 mL of cell culture at a final concentration from 0.025 to 20 μM. The C. albicans viability was followed after 4 h of incubation at 30 °C. 50 µL of incubation culture were mixed with 50 µL of BacTiter-Glo^TM reagent in a microtiter plate following the manufacturer instructions and incubated at room temperature for 10 min. Luminiscence was read on a Victor3 plate reader (PerkinElmer, Waltham, MA, USA) with a 1-s integration time. IC50 values were calculated by fitting the data to a dose-response curve.

[2] = in vitro; type: cell-based; conditions: human
Description: The peptide cytoxicity was evaluated using the human monocytic THP1 cell line. The assay was performed in 96-well cell culture flat-bottom plates (Costar; Appleton Woods) in triplicate. THP-1 cultures were induced to macrophages by adding 2 ng/mL of colony-stimulating factor (R&D Systems, Germany). Peptides were serially diluted from 50 to 0.1 µM and added to 5 × 10^5 cells/mL. After 48 h of incubation, the cells were washed twice with 1× PBS, and fresh RPMI-1640 complete medium was added. Plates were then treated with 30 μL of a freshly prepared 0.01% resazurin solution and incubated overnight at 37 °C. The following day the change in color was observed and the fluorescence intensity was measured (λex560 nm, λem590 nm). The 50% growth inhibitory concentration (GIC50) was determined based on the resazurin fluorescence signal.

[3] = tested on: C. albicans; assay: Cell survival assay (Live/Dead kit); type: cell-based, Candida albicans (ATCC 90028); conditions: survival percentage at final incubation time (120 min), mean ± SEM
Description: C. albicans viability assay was performed using the Live⁄Dead® microbial viability kit as previously described. Candida strain was grown at 30 °C to ~5 × 10^6 cells/mL, centrifuged at 5000× g for 5 min and resuspended in a 0.85% NaCl solution, in accordance with the manufacturer instructions. C. albicans cell culture was stained using a SYTO®9/propidium iodide 1:1 mixture. SYTO9/propidium iodide staining allowed us to monitor both the candidal viability in planktonic cell cultures and within the biofilm, as the SYTO9 dye is able to permeate the cell membrane and stain the nucleic acid of viable cells; whereas, when the cell membrane is damaged, propidium iodide can diffuse into the cell and displace SYTO9. The method allows the labelling of intact viable cells and membrane compromised cells, which are labelled in green and red respectively, referred to as live and dead cells. The viability kinetics were monitored using a Cary Eclipse Spectrofluorimeter (Varian Inc., Palo Alto, CA, USA). Cell viability profiles were registered after adding from 1 to 5 µM of final peptide concentration. To calculate the cell viability, the fluorescence in the range of 510–540 nm and 620–650 nm were integrated to obtain the SYTO®9 (live cell) and the propidium iodide (dead cell) signals respectively. Then, the percentage of live bacteria was represented as a function of time.

[4] = tested on: C. albicans cytoplasmic membrane; assay: Cell membrane depolarization assay (DiSC3); type: cell-based, Candida albicans (ATCC 90028); conditions: mean ± SEM; for Membrane Depolarization ED50: DiSC3 probe, peptide 0.1 to 5 µM, 50 min, 20 °C, Hepes-KOH pH 7.2; for Membrane Depolarization Depolmax: maximum fluorescence value at final incubation time with 2 µM peptide, DiSC3
Description: Membrane depolarization was assayed by monitoring the DiSC3 fluorescence intensity change in response to changes in transmembrane potential as described previously. C. albicans cells were grown at 30 °C to the mid-exponential (OD592~0.4) and resuspended in 5 mM Hepes-KOH, 20 mM glucose and 100 mM KCl at pH 7.2. DiSC3 was added to a final concentration of 0.4 µM. Changes in the fluorescence for alteration of the cell plasma membrane potential were continuously monitored at 20 °C at an excitation wavelength of 620 nm and an emission wavelength of 670 nm. When the dye uptake was maximal, as indicated by a stable reduction in the fluorescence as a result of quenching of the accumulated dye in the membrane interior, protein in 5 mM Hepes-KOH buffer at pH 7.2 was added at a final peptide concentration from 1 to 5 μM and incubated for 50 min, to calculate the ED50 concentration. Maximum depolarization was calculated when the fluorescence signal was fully stabilized, and the depolarization percentage was calculated taking Triton X-100 at 10% as a maximum reference value. The time required to reach a stabilized maximum fluorescence reading was recorded for each condition, and the time required to achieve half of total membrane depolarization was estimated from the nonlinear regression curve. All conditions were assayed in duplicate.

[5] = tested on: C. albicans cytoplasmic membrane; assay: Cell membrane permeabilization (Sytox Green uptake); type: cell-based, Candida albicans (ATCC 90028); conditions: mean ± SEM; for Membrane Permeabilization Max. Perm.: Sytox Green fluorescence, PBS, 50 min; for Membrane Permeabilization Perm.: maximum at final incubation time (50 min), referred to positive control 10 % Triton X-100, Sytox Green
Description: Membrane permeabilization was evaluated by using the Sytox® Green uptake assay. Sytox® Green is a cationic cyanine dye which is unable to cross the membrane. When cells’ plasma membrane integrity is compromised, the dye enters into the cell, binding to DNA and triggering a large increase of the fluorescence signal. For Sytox® Green assays, C. albicans cells were grown to mid-exponential growth phase at 30 °C and then centrifuged, washed, and resuspended in PBS. Cell suspensions in PBS (~2 × 10^6 cells/mL) were incubated with 1 μM Sytox® Green for 15 min in the dark prior to the influx assay. At 2 to 4 min after initiating data collection, proteins at 1 and 5 μM final concentration were added to the cell suspension, and the increase in Sytox® Green fluorescence was measured (excitation wavelength at 485 nm and emission at 520 nm) for 50 min in a Cary Eclipse spectrofluorimeter. Fungal cell lysis with 10% Triton X-100 was taken as the maximum fluorescence reference value.

[6] = tested on: C. albicans cells; assay: Minimal agglutination activity (MAC); type: cell-based, Candida albicans (ATCC 90028); conditions: for MAC (minimal agglutination concentration): C. albicans in PBS, 1 h at 30 °C, peptides 0.01 to 20 μM, visual inspection, mean ± SEM, three replicates of two independent experiments
Description: C. albicans cells were grown at 30 °C to an OD592 of 1.0, diluted 10 times, centrifuged at 5000× g for 2 min, and resuspended in 1× PBS. An aliquot of 100 μL of the cellular suspension was treated with increasing peptide concentrations (from 0.01 to 20 μM) and incubated at 30 °C for 1 h. The aggregation behavior was observed by visual inspection, and the agglutinating activity is expressed as the minimum agglutinating concentration of the sample tested, as previously described. Images were taken using a 50× stereoscope microscope.

[7] = tested on: C. albicans; assay: Minimum fungicidal concentration by CFU counting; type: cell-based, Candida albicans (ATCC 90028); conditions: for MFC100, PBS / MFC100, Sabouraud Broth: C. albicans ~2 × 10^5 cells/mL, CFU counting, peptides 20 to 0.1 µM, mean ± SEM, two independent experiments in triplicate; for MFC100, PBS: 4 h at 30 °C in PBS; for MFC100, Sabouraud Broth: 4 h at 30 °C in Sabouraud nutrient broth
Description: C. albicans was cultured overnight in Sabouraud Dextrose broth at 30 °C, sub-cultured the next day in fresh media and grown to an optical density of 0.4 at 592 nm (mid log-phase). Cells were washed twice and diluted to ~2 × 10^5 cells/mL. Peptides serially diluted were added to the cells from 20 to 0.1 µM final concentration. C. albicans was incubated at 30 °C during 4h in Sabouraud nutrient broth or PBS. Following, the samples were plated onto Sabouraud Petri dishes and incubated at 30 °C overnight. Antifungal activity was expressed as the MFC, defined as the lowest peptide concentration required for more than 99% of microorganism killing. MFC of each peptide was determined from two independent experiments performed in triplicate for each concentration.

[8] = tested on: C. albicans; conditions: as previously reported; cited from earlier work

Molecule: KPPQFTWAQWFETQHINMTSQQSTNAMQVINNYQRRSKNQNTFLL-NH2 [RN2]
- IC50 [1]: > 20000 nM
- IC50 at 48 h [2]: > 50000 nM

Molecule: KESRAKKFQRQHMDSDSSPSSSSTYSNQMMRRRNMTQGRSKPVNTFVH-NH2 [RN1]
- IC50 [1]: 2100 ± 200 nM
- IC50 at 48 h [2]: > 50000 nM
- Cell Survival [3]: 67 ± 1%
- Membrane Depolarization ED50 [4]: 4630 ± 700 nM
- Membrane Depolarization Depolmax [4]: 65.2 ± 4.6 AU
- Membrane Permeabilization Max. Perm. [5]: 26.1 ± 0.4 AU
- Membrane Permeabilization Perm. [5]: 8.3 ± 0.4%
- MAC (minimal agglutination concentration) [6]: 1.80 ± 0.40 µM
- MFC100, PBS [7]: 3.75 ± 0.30 µM
- MFC100, Sabouraud Broth [7]: 3.75 ± 0.50 µM

Molecule: WPKRLTKAHWFEIQHIQPSPLQSNRAMSGINNYTQHSKHQNTFLH-NH2 [RN6]
- IC50 [1]: 1800 ± 200 nM
- IC50 at 48 h [2]: > 50000 nM

Molecule: RPPQFTRAQWFAIQHISLNPPRSTIAMRAINNYRWRSKNQNTFLR-NH2 [RN3]
- IC50 [1]: 220 ± 50 nM
- IC50 at 48 h [2]: > 50000 nM

Molecule: RPRGMTSSQWFRIQHMQPSPQASNSAMRNINRHTRRSRDLNTFLH-NH2 [RN7R]
- IC50 [1]: 1620 ± 320 nM
- IC50 at 48 h [2]: > 50000 nM

Molecule: QDGMYQRFLRQHVHPEETGGSDRYSNLMMQRRKMTLYHSKRFNTFIH-NH2 [RN4]
- IC50 [1]: 1800 ± 300 nM
- IC50 at 48 h [2]: > 50000 nM
- Cell Survival [3]: 65 ± 10%
- Membrane Depolarization ED50 [4]: 3580 ± 1600 nM
- Membrane Depolarization Depolmax [4]: 76.2 ± 4.8 AU
- Membrane Permeabilization Max. Perm. [5]: 117 ± 2 AU
- Membrane Permeabilization Perm. [5]: 38.7 ± 0.1%
- MAC (minimal agglutination concentration) [6]: 0.40 ± 0.10 µM
- MFC100, PBS [7]: 3.75 ± 0.20 µM
- MFC100, Sabouraud Broth [7]: 4.00 ± 0.50 µM

Molecule: KPKDMTSSQWFKTQHVQPSPQASNSAMSIINKYTERSKDLNTFLH-NH2 [RN8]
- IC50 [1]: > 10000 nM
- IC50 at 48 h [2]: > 50000 nM

Molecule: KPKGMTSSQWFKIQHMQPSPQASNSAMKNINKHTKRSKDLNTFLH-NH2 [RN7]
- IC50 [1]: 450 ± 100 nM
- IC50 at 48 h [2]: > 50000 nM

Molecule: colistin
- MFC taken as internal reference [8]: 0.25 µM

Molecule: C[C@@H]1[C@H](O)[C@@H](C)/C=C/C=C/C=C/C=C/C=C/C=C/C=C/[C@H](O[C@@H]2O[C@H](C)[C@@H](O)[C@H](N)[C@@H]2O)C[C@@H]2O[C@](O)(C[C@@H](O)C[C@@H](O)[C@H](O)CC[C@@H](O)C[C@@H](O)CC(=O)O[C@H]1C)C[C@H](O)[C@H]2C(=O)O [amphotericin B]
- MFC taken as internal reference [8]: 0.5 µM (≈ 0.462 µg/mL)

Molecule: KPPQFTKAQWFAIQHISLNPPKSTIAMKAINNYKWKSKNQNTFLK-NH2 [RN3K]
- IC50 [1]: 2080 ± 270 nM
- IC50 at 48 h [2]: > 50000 nM

Molecule: QDNSRYTHFLTQHYDAKPQGRDDRYSESIMRRRGLTSPSKDINTFIH-NH2 [RN5]
- IC50 [1]: > 20000 nM
- IC50 at 48 h [2]: > 50000 nM
- Cell Survival [3]: 39 ± 0.5%
- Membrane Depolarization ED50 [4]: 1510 ± 100 nM
- Membrane Depolarization Depolmax [4]: 39.1 ± 5.1 AU
- Membrane Permeabilization Max. Perm. [5]: 66.5 ± 0.6 AU
- Membrane Permeabilization Perm. [5]: 21.8 ± 0.4%
- MAC (minimal agglutination concentration) [6]: 1.80 ± 0.40 µM
- MFC100, PBS [7]: >20 µM
- MFC100, Sabouraud Broth [7]: >20 µM
- MFC ([7]; medium not specified): inactive

B1: hRNase7: human ribonuclease 7 of the RNaseA superfamily, parental protein of RN7 (protein, UniProt Q9H1E1 29-156, looked up)
Ribonuclease 7: KPKGMTSSQWFKIQHMQPSPQACNSAMKNINKHTKRCKDLNTFLHEPFSSVAATCQTPKIACKNGDKNCHQSHGAVSLTMCKLTSGKHPNCRYKEKRQNKSYVVACKPPQKKDSQQFHLVPVHLDRVL
- agglutination of C. albicans by the parental hRNase ([6]; protein tested up to 20 μM): not
